This series in a line: SAD study Part 1: safety and tolerability (adverse events, laboratory values). It counts as in vivo. To be noted: single oral dose, highest dose tested. On the procedure: There were no deaths, serious adverse events (SAEs), or dose-limiting events and the maximum tolerated dose observed was at the highest dose tested (360 mg). Overall, the most frequently reported AEs following administration of a single dose of (R)-compound 1 were headache, nasopharyngitis, diarrhea, asthenia, dizziness, and nausea.
Urine sodium and the sodium to potassium ratio both increased, with the sodium loss in urine greater than the potassium retention. No change in urine creatinine was apparent.
AEs were reported for few subjects and the incidence was not dose dependent (Table 14). No severe AEs, SAEs, withdrawals due to AEs, or deaths were noted. Overall, the most frequently reported AEs across dose levels were headache, nasopharyngitis, diarrhea, and nausea; however, the only events reported by >1 subject at any dose level were toothache (2 subjects [12.5%] with placebo), nasopharyngitis (2 subjects [12.5%] with placebo), and headache (2 subjects [33.3%] with 180 mg). The majority of AEs were considered not related to study drug. Two events of moderate gastroenteritis were reported (with 180 mg and placebo) and all other AEs were mild in intensity.
Isolated markedly abnormal safety laboratory values were reported but no dose-dependent pattern was apparent. No AEs related to markedly abnormal safety laboratory values were reported. […]

In turn, `CCC(=O)N[C@@H]1CCCc2c(-c3ccc4c(c3)CCC(=O)N4C)cncc21` [(R)-Compound 1, (R)—N-(4-(1-methyl-2-oxo-1,2,3,4-tetrahydroquinolin-6-yl)-5,6,7,8-tetrahydroisoquinolin-8-yl)propionamide] registered a maximum tolerated dose of 360 mg.

These data come from patent US20240277698A1, “METHODS OF USING ALDOSTERONE SYNTHASE INHIBITORS” (CINCOR PHARMA, INC., priority 2021, published 2024).
